Results: patent US7129356B2, “Farnesyl transferase inhibiting 4-substituted quinoline and quinazoline derivatives” (Janssen Pharmaceutica N.V., priority 2000, dated 2006)

melting point [°C]	SMILES
233.3	O=c1cc(Oc2ccccc2)c2cc(C(c3ccc(Cl)cc3)n3ccnc3)ccc2[nH]1 (racemic) [Example B1, (±)-6-[(4-chlorophenyl)-1H-imidazol-1-ylmethyl]-4-phenoxy-2(1H)-quinolinone]
190	Cn1cncc1C(O)(c1ccc(Cl)cc1)c1ccc2c(c1)c(CCc1cccc(Cl)c1)cc(=O)n2C (stereo not shown) [Example B2, 4-[2-(3-chlorophenyl)ethyl]-6-[(4-chlorophenyl)hydroxy(1-methyl-1H-imidazol-5-yl)methyl]-1-methyl-2(1H)-quinolinone]
165	Cn1cncc1C(N)(c1ccc(Cl)cc1)c1ccc2c(c1)c(CCc1cccc(Cl)c1)cc(=O)n2C (stereo not shown) [Example B3, 6-[amino(4-chlorophenyl)(1-methyl-1H-imidazol-5-yl)methyl]-4-[2-(3-chlorophenyl)ethyl]-1-methyl-2(1H)-quinolinone]
189	CCOC(=O)c1c(Oc2cccc(Cl)c2)c2cc(C(c3ccc(Cl)cc3)c3cnc(-c4ccccc4)[nH]3)ccc2[nH]c1=O (stereo not shown) [Example B4 F2, 4-(3-chlorophenoxy)-6-[(4-chlorophenyl)(2-phenyl-1H-imidazol-5-yl)methyl]-1,2-dihydro-2-oxo-3-quinolinecarboxylic acid ethyl ester]
246	O=c1[nH]c2ccc(C(c3ccc(Cl)cc3)n3ccnc3-c3ccccc3)cc2c(Oc2cccc(Cl)c2)c1CO (stereo not shown) [Example B5, 4-(3-chlorophenoxy)-6-[(4-chlorophenyl)(2-phenyl-1H-imidazol-1-yl)methyl]-3-(hydroxymethyl)-2(1H)-quinolinone]
218	CN(C(=O)c1cc(=O)n(C)c2ccc(C(O)(c3ccc(Cl)cc3)c3cncn3C)cc12)c1cccc(Cl)c1 (stereo not shown) [Example B11, N-(3-chlorophenyl)-6-[(4-chlorophenyl)hydroxy(1-methyl-1H-imidazol-5-yl)methyl]-1,2-dihydro-N,1-dimethyl-2-oxo-4-quinolinecarboxamide]
185	Cc1cccc(N(C)C(=O)c2cc(=O)n(C)c3ccc(C(O)(c4ccc(Cl)cc4)c4cncn4C)cc23)c1 (stereo not shown) [Example B12, 6-[(4-chlorophenyl)hydroxy(1-methyl-1H-imidazol-5-yl)methyl]-1,2-dihydro-N,1-dimethyl-N-(3-methylphenyl)-2-oxo-4-quinolinecarboxamide]
115	Cn1c(=O)cc(CCc2cccc(Cl)c2)c2cc(C(O)(c3ccc(Cl)cc3)c3cccnc3)ccc21 (stereo not shown) [Example B14, 4-[2-(3-chlorophenyl)ethyl]-6-[(4-chlorophenyl)hydroxy-3-pyridinylmethyl]-1-methyl-2(1H)-quinolinone]
90	Cn1c(=O)cc(CCc2cccc(Cl)c2)c2cc(C(N)(c3ccc(Cl)cc3)c3cccnc3)ccc21 (stereo not shown) [Example B15, 6-[amino(4-chlorophenyl)-3-pyridinylmethyl]-4-[2-(3-chlorophenyl)ethyl]-1-methyl-2(1H)-quinolinone]
200	Cn1cnnc1C(O)(c1ccc(Cl)cc1)c1ccc2c(c1)c(CCc1cccc(Cl)c1)cc(=O)n2C (stereo not shown) [Example B20, 4-[2-(3-chlorophenyl)ethyl]-6-[(4-chlorophenyl)hydroxy(4-methyl-4H-1,2,4-triazol-3-yl)methyl]-1-methyl-2(1H)-quinolinone]
